# From patent publication US20240026554A1, “ANTIOXIDANT CULTURE METHOD AND ANTIOXIDANT AUXILIARY EQUIPMENT” (National Pingtung University of Science and Technology, priority 2022, published 2024)
# Read-outs that look alike come from different tables or passages of the source.
# How the values were obtained:
# [1] = tested on: hamster kidney cells (BHK21); settings: bioreactor with hydrogen vs without hydrogen, hydrogen supplied from day 2, culture to day 8
# Description: The hamster kidney cells were incubated at 37° C. in an incubator with 5.0% CO2 using MEM culture medium (Invitrogen, Gibco Co. Ltd., New York, USA, with 10% FBS). The hamster kidney cells were incubated in a cell culture flask (175T Flask) for 3 days, and then placed in a roller bottle for expanded culture for 3 days. At the beginning of the experiment, the cells were first transferred to a tidal bioreactor (Bellocell, Taiwan) with a working volume of 500 ml of culture medium for 2 days to adapt to the environment in which the hamster kidney cells could grow to a saturated number of about 3×10^9/bottle. The electrolysis-based hydrogen generator was started on day 2 for antioxidant cell culture to regulate cellular oxidative stress.
# The cells were divided into two groups to analyze the antioxidant effect. […] Cell number, hydrogen concentrations, and reactive oxygen species (ROS) tolerance responses were measured daily.
# The biological carriers in the bioreactors of the experimental group and the control group were collected daily, 1 ml of Crystal Violet Dye (CVD) cell counting dye was added, and the number of cells was counted and recorded using an inverted microscope.
# [2] = tested on: BHK21 cells infected with bovine epidemic fever virus; settings: 24 hours after virus infection; experimental group vs control group
# Description: (§1) On the second day, the antioxidant auxiliary equipment was started, and hydrogen gas was supplied at the frequency of turning on the current for 15 minutes per hour. On the third day, the frequency of the current was adjusted to the frequency of turning on the current for 15 minutes and turning off the current for 15 minutes. 0.01 MOI bovine epidemic fever virus liquid (virus strain Tn88128 , References: Hsieh, Y -C.; Wang, S. -Y; Lee, Y -F.; Chen, S. -H.; Mak, P. O. T.; Chu, C. -Y. DNA sequence analysis of glycoprotein G gene of bovine ephemeral fever virus and development of a double oil emulsion vaccine against bovine ephemeral fever. J. Vet. Med. Sci. 2006, 68, 543-548) was used for infecting two groups of cells and the virus was cultured until the eighth day (day 8), the voltage was 3-5V, and the current was 0.5 A. The cell number, hydrogen concentration, viral titer and cell senescence molecular marker Cdkn2a (p16) were measured daily.
# After virus infection, the cells on the carrier sheet in the bioreactors of the experimental group and the control group were collected every day, 1 ml of CVD was added, and the number of cells was calculated on that day. The formula for calculating the cell death rate is [(total number of cells on the previous day)−(total number of cells on that day)]/(total number of cells on the previous day)*100%.
# BHK-21 cells = settings: H2O2 0, 4, 10, 20 μM; days 4, 5 and 6; hydrogen group vs hydrogen-free group
# Description: The cells were divided into two groups to analyze the antioxidant effect. […] Following Example 1, when the antioxidant auxiliary equipment was turned on the second day (day 2), hydrogen gas was supplied at the frequency of turning on the current for 15 minutes per hour, the voltage was 3-5V, the constant current was 0.5 A, and the theoretical hydrogen production was about 466×10^−5 moles per hour. On the third day, the frequency was adjusted to turn on for 15 minutes and turn off for 15 minutes to continuously supply hydrogen gas until the end of the experiment. The voltage was 3˜5V, the constant current was 0.5 A, and the theoretical hydrogen production was about 933×10^−5 moles per hour. The culture medium was replaced on the third day, and the cells were cultured until the eighth day. Cell number, hydrogen concentrations, and reactive oxygen species (ROS) tolerance responses were measured daily.
# (§2) By adding H2O2 at concentrations of 0 μM, 4 μM, 10 μM, and 20 μM, the BHK-21 cells (1×10^5/test) in the experimental group and in the control group were induced to undergo oxidation reaction. H2DCFDA was modified by cellular esterases to form a non-fluorescent H2DCF after adding H2DCFDA cell-permeant fluorescence probe.
# [3] = tested on: BHK21 cells infected with bovine epidemic fever virus; settings: 24 hours after virus infection, hydrogen group vs hydrogen-free group
# Description: as §2
# (§3) 0.01 MOI bovine epidemic fever virus liquid (virus strain Tn88128 , References: Hsieh, Y -C.; Wang, S. -Y; Lee, Y -F.; Chen, S. -H.; Mak, P. O. T.; Chu, C. -Y. DNA sequence analysis of glycoprotein G gene of bovine ephemeral fever virus and development of a double oil emulsion vaccine against bovine ephemeral fever. J. Vet. Med. Sci. 2006, 68, 543-548) was used for infecting two groups of cells and the virus was cultured until the eighth day (day 8), the voltage was 3-5V, and the current was 0.5 A. The cell number, hydrogen concentration, viral titer and cell senescence molecular marker Cdkn2a (p16) were measured daily.
# Two groups of cells infected with virus on part of the carrier sheets in the bioreactor were collected after 24 hours, and H2O2 with concentrations of 0 μM, 4 μM, 10 μM, and 20 μM was added to induce intracellular oxidation reaction, and the ROS fold changes were evaluated by the method of 2.3 in Example 2.
# [4] = tested on: bovine epidemic fever virus (strain Tn88128); settings: 24 hours after virus infection (the 4th day), 0.01 MOI
# Description: as §3
# After the virus infection, the virus tier in the virus liquid was measured by the TCID50 detection method after collecting the virus liquid in the bioreactors of the experimental group and the control group every day. The virus liquid was serially diluted 10-fold with MEM to 1/10^10th of original concentration, and then inoculated into a 96-well cell culture plate at 100 μl/well (100 μl of cell fluid was already added to each well, containing 2×10^4 BHK21 cells), the BHK21 cells were cultured in a 5% CO2 incubator at 37° C. for 3 days. After cytopathic effect (CPE) was observed and recorded, TCID50 was calculated using the Reed-Muench method.
# Cdkn2a (p16) = settings: after hydrogen supply, on the third day; experimental vs control group
# Description: as §1
# The expression level of the cellular senescence molecule Cdkn2a (p16) is an indicator of senescent cells. […]
compound,measurement,setting,value
[HH] [molecular hydrogen],cell growth pattern / damage to cells,[1],will not cause damage to cells
same,cell consumption rate (cell death rate),[2],greater than that of the control group
same,ROS fold change,BHK-21 cells,significantly demonstrated reduced ROS fold change
same,ROS fold change,[3]; H2O2 10 μM,significantly reduced the ROS fold change
same,ROS fold change,[3]; H2O2 20 μM,significantly reduced the ROS fold change
same,virus yield relative to hydrogen-free group,[4],16 times
same,fold change of gene expression of senescence molecule Cdkn2a (p16),Cdkn2a (p16),decreased significantly
